These results are taken from patent publication US20260028354A1, “TETRAHYDRONAPHTHALENE DERIVATIVES AS ESTROGEN RECEPTOR DEGRADERS” (REGENT OF THE UNIVERSITY OF MICHIGAN, priority 2022, published 2026).

For assay [1], the target named is CRBN/DDB1 (Homo sapiens (Human), UniProt Q96SW2). Type of assay: binding. To be noted: His tagged CRBN+DDB1, Cy5-labeled Thalidomide probe, one hour; read-out: CRBN HTRF IC50. How it is done: The binding potency was determined using HTRF assay technology (Perkin Elmer). Compounds were serially diluted in DMSO and […] volume was transferred to white 384-well plate.
Chain of CRBN/DDB1 (Q96SW2 whole entry, species assumed): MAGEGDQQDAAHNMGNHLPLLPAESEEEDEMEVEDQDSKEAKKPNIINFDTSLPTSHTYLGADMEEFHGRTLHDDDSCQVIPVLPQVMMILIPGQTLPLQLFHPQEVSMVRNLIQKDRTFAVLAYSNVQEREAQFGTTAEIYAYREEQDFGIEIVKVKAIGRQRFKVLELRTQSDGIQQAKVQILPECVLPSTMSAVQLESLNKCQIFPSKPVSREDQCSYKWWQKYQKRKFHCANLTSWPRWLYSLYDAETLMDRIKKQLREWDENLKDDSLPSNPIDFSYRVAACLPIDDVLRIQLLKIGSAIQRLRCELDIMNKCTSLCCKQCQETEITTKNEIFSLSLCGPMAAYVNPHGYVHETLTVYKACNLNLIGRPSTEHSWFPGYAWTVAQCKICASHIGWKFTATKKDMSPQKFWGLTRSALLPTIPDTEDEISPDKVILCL
Chain of CRBN/DDB1 (Q16531 whole entry partner, species assumed): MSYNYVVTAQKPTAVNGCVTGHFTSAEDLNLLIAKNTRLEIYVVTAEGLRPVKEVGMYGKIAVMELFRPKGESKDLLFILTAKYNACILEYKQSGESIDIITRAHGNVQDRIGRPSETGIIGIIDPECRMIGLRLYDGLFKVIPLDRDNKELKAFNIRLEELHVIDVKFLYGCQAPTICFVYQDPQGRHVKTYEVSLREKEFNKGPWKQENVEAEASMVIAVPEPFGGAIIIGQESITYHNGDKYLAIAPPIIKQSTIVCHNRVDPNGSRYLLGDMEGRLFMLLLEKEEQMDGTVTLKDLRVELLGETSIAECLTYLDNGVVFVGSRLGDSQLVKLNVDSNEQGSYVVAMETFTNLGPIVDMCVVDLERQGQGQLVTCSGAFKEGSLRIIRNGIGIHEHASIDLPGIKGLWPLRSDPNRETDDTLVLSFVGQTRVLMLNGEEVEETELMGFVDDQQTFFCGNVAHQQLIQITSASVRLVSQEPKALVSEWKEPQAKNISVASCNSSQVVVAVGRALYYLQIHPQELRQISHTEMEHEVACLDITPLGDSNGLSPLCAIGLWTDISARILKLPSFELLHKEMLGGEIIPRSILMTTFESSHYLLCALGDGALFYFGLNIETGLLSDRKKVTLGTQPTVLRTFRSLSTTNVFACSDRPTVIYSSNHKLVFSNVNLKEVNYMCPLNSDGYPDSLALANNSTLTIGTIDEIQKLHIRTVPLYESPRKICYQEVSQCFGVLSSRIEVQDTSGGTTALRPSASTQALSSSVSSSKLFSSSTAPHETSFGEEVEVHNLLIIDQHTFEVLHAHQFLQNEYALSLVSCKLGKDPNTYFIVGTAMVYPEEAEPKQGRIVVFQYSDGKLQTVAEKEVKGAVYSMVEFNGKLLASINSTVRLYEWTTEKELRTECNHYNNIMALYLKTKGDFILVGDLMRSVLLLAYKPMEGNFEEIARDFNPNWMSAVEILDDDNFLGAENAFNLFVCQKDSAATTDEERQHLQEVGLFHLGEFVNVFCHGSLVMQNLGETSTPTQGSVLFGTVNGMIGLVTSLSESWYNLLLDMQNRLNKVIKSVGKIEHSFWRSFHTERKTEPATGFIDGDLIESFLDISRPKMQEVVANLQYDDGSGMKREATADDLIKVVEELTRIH
In general terms: Time-resolved FRET reads energy transfer from a long-lived donor to a nearby acceptor.

In assay [2] the target is ERα_LBD (GST) (Homo sapiens (Human), UniProt P03372). Briefly: IC50 measurements for binding to ERα_LBD (GST), LanthaScreen TR-FRET competitive binding. The settings on record: ERα_LBD (GST) 4 nM, Fluormone ES2 Green tracer, 60 min; read-out: ERα HTRF IC50. The protocol:
In vitro Assay: IC50 Measurements for binding to ERα_LBD (GST) • Final assay conditions: • 1. ERα_LBD (GST) protein: 4 nM • 2. Tb Anti-GST: 2 nM • 3. Fluormone ES2 Green tracer: 3 nM • 4. Incubation time: 60 min • 5. DMSO: 1% • 6. Assay buffer: Adding 1M DTT to Nuclear receptor Buffer K for final 5 mM DTT. • 7. ZPE: 1% DMSO • 8. HPE: 1 μM ARV_471 (positive control) • 9. LanthaScreen® TR-FRET ERα Competitive Binding Assay (ThermoFisher, #A^15887) • 100× Compound preparation
1) Cherry pick 2 μL 10 mM compound stock to column 1 of a 384 intermediate plate. • 2) Add 18 μL DMSO to column 1 to dilute compound to 1 mM. • 3) Transfer 10 μL 1 mM compound to column 1 of a LDV plate. • 2) Add 6 μl DMSO to column 2-10 of the LDV plate. • 3) Compounds undergo 3-fold serial dilution (3 μL+6 μL) in DMSO. • 4) Transfer 120 nL compound solution to assay plate. ZPE: 120 nL 100% DMSO • Procedure:
Complete nuclear receptor buffer K was prepared by adding 1 M DTT to nuclear receptor buffer K for a final concentration of 5 mM DTT. Complete nuclear receptor buffer K must be prepared fresh daily, 2X protein solution was prepared using complete nuclear receptor buffer K containing 8 nM ERα_LBD (GST) and 4 nM Tb Anti-GST. Then, 2X Fluormone ES2 Green tracer (6 nM) was prepared using complete nuclear receptor buffer K. Add 6 μL 2X Fluormone ES2 green tracer into a compound plate (PerkinElmer 6008289) by dragonfly with one-tips-addition. Subsequently, 6 μL 2× protein solution was added into the plate. The 384-well plate was mixed on a plate shaker and incubated at room temperature protected from light for 60 min. The plate was scaled with a cover to minimize evaporation. The plate was read at wavelengths of 520 nm and 495 nm. The TR-FRET ratio was calculated by dividing the emission signal at 520 nm by the emission signal at 495 nm. A binding curve was generated by plotting the emission ratio vs, the log [ligand]. To determine the IC50 value, fit the data using XL-fit for a sigmoidal dose-response.

Assay [3] deals with ER in MCF-7 cells (Homo sapiens (Human), UniProt P03372). Briefly: In-cell Western (ICW) ER degradation assay in MCF-7 cells. Type of assay: cell-based. To be noted: for DC50: MCF-7, ER degradation, read-out: MCF7 DC50.
Chain of ER in MCF-7 cells (P03372 whole entry): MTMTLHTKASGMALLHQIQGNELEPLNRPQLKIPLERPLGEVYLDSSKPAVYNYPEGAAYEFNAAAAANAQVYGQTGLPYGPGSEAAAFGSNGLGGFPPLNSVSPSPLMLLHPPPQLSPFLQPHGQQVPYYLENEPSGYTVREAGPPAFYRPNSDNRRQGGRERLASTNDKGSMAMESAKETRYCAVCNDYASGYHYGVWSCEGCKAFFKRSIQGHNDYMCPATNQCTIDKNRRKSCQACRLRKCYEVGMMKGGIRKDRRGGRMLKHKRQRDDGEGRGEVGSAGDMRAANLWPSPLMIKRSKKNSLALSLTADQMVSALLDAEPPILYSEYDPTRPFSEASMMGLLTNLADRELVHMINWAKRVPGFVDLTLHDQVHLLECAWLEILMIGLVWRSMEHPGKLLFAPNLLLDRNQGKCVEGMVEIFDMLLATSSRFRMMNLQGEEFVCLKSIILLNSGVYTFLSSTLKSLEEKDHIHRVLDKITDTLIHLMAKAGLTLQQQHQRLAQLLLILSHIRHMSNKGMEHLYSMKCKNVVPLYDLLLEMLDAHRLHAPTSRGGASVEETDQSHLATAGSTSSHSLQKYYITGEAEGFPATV
Assay [4] relates to MCF-7 cells. Description: CellTiter-Glo (CTG) cell proliferation assay in MCF-7 cells. To be noted: MCF-7 cell proliferation. Type of assay: cell-based. The text has this: CellTiter-Glo® (CTG) Assays in MCF-7 and T47D Cell Lines.
In vitro Assay: MCF-7 and T47D CTG assay
(ATP-based viability assays read luminescence as a measure of living cells.)

In assay [5] the target is ER in T47D cells (Homo sapiens (Human), UniProt P03372). Briefly: In-cell Western (ICW) ER degradation assay in T47D cells. The settings on record: for DC50: ER degradation. Type of assay: cell-based.
Chain of ER in T47D cells (P03372 whole entry): as above
Setting [6] is: MCF7, MCF-7, maximal ER degradation, 16 hrs treatment, read-out: MCF7 Dmax.
Setting [7] is: Homo sapiens, MCF7, 144 h, Day 6.
Where [8] appears, read: maximal ER degradation, 16 hrs treatment, read-out: T47D Dmax.
[9] abbreviates: MCF7, read-out: MCF7 Dmax, MCF-7, maximal ER degradation, 16 hrs treatment.
The mark [10] stands for this setting: read-out: T47D Dmax, T47D, maximal ER degradation, 16 hrs treatment.

Read-outs that look alike come from different tables or passages of the source.

Chain of ERα_LBD (GST) (P03372 311-547): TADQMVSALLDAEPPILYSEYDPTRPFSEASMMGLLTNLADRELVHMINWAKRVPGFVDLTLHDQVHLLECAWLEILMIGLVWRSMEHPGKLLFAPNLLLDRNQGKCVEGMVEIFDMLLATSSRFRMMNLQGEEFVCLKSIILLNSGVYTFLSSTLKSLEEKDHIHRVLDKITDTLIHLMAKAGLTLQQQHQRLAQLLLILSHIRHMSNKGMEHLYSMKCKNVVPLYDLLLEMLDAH

Consider `COc1cc(N2CCC(CN3CCN4c5ccc6c(c5OC[C@@H]4C3)CN([C@@H]3CCC(=O)NC3=O)C6=O)CC2)ccc1[C@H]1c2ccc(O)cc2CC[C@H]1c1ccccc1` (stereo in doubt) [Compound A24, (R)-3-((S)-7-((1-(4-((1R,2R)-6-hydroxy-2-phenyl-1,2,3,4-tetrahydronaphthalen-1-yl)-3-methoxyphenyl)piperidin-4-yl)methyl)-1-oxo-1,3,5,5a,6,7,8,9-oCtahydro-2H-pyrazino [1′,2′:4,5][1,4]oxazino[2,3-e]isoindol-2-yl)piperidine-2,6-dione], for which the IC50 in assay [1] is 50 to 500 nM; in assay [2] it was less than 10 nM; in assay [4] (setting [7]) it was 10 to 100 nM. The Dmax in assay [3] (setting [6]) and in assay [5] (setting [8]) was more than 75% in each case. In addition, the 50% degradation concentration (DC50) in assay [3] (16 hrs treatment) and in assay [5] (16 hrs treatment) was less than 1 nM throughout.
On to `O=C1CC[C@H](N2Cc3c(ccc4c3OC[C@H]3CN(C[C@H]5COC6(C5)CN(c5ccc([C@@H]7c8ccc(O)cc8CC[C@@H]7c7ccccc7)cc5)C6)CCN43)C2=O)C(=O)N1` (single isomer, unassigned) [Compound A68], for which the IC50 in assay [1] was less than 50 nM; in assay [2] it was less than 10 nM; in assay [4] (setting [7]) it was 10 to 100 nM. Also, the Dmax in assay [3] (setting [6]) is 50 to 75%; in assay [5] (setting [8]), more than 75%. The DC50 in assay [3] (16 hrs treatment) and in assay [5] (16 hrs treatment) was less than 1 nM each time.
For `O=C1CC[C@H](N2Cc3c(ccc4c3OC[C@H]3CN(CC5CCN(c6ccc([C@@H]7c8ccc(O)cc8CC[C@@H]7c7ccccc7)cc6)CC5)CCN43)C2=O)C(=O)N1` [Compound A71, (S)-3-((R)-7-((1-(4-((1R,2S)-6-hydroxy-2-phenyl-1,2,3,4-tetra-hydronaphthalen-1-yl)phenyl)-piperidin-4-yl)methyl)-1-oxo-1,3,5,5a,6,7,8,9-octahydro-2H-pyrazino[1′,2′:4,5][1,4]oxazino [2,3-e]isoindol-2-yl)piperidine-2,6-dione], the values for the IC50 in assay [1], in assay [2] and in assay [4] (setting [7]) were 50 to 500 nM, less than 10 nM and less than 10 nM, respectively. In addition, in assay [3] (setting [6]), the Dmax is more than 75%. The DC50 in assay [3] (16 hrs treatment) is less than 1 nM.
“(S)-3-(1′-(((S)-2-(4-((1R,2S)-6- hydroxy-2-phenyl-1,2,3,4- tetrahydronaphthalen-1- yl)phenyl)-5-oxa-2- azaspiro[3.4]octan-7-yl)methyl)- 7-oxo-5,7-dihydro-2H,6H- spiro[furo[2,3-f]isoindole-3,4′- piperidin]-6-yl)piperidine-2,6- dione [Compound A76]”: the IC50 in assay [1] is 50 to 500 nM; in assay [2], less than 10 nM; in assay [4] (Day 6, read-out: MCF7 IC50), less than 10 nM. In assay [3] (16 hrs treatment), the DC50 is less than 1 nM. Further, in assay [3] (MCF-7, maximal ER degradation, 16 hrs treatment), the “MCF7 Dmax” value is “A (“A”: >=75%)”.
`O=C1CC[C@H](N2Cc3cc4c(cc3C2=O)OC[C@@H]2CN(C[C@@H]3COC5(C3)CN(c3ccc([C@@H]6c7ccc(O)cc7CC[C@@H]6c6ccccc6)cc3)C5)CCN42)C(=O)N1` [Compound A73, (S)-3-((S)-3-(((R)-2-(4-((1R,2S)-6-hydroxy-2-phenyl-1,2,3,4-tetrahydronaphthalen-1-yl)phenyl)-5-oxa-2-azaspiro[3.4]octan-7-yl)methyl)-8-oxo-1,2,3,4,4a,5,8,10-octahydro-9H-pyrazino[1′,2′:4,5][1,4]oxazino[2,3-f]isoindol-9-yl)piperidine-2,6-dione]: the values for the IC50 in assay [1], in assay [2] and in assay [4] (setting [7]) were 500 to 5000 nM, less than 10 nM and 10 to 100 nM, respectively. Besides, the Dmax in assay [3] (setting [6]) and in assay [5] (setting [8]) was more than 75% in each case. The 50% degradation concentration (DC50) in assay [3] (16 hrs treatment) and in assay [5] (16 hrs treatment) was less than 1 nM each time.
As to `O=C1CC[C@H](N2Cc3cc4c(cc3C2=O)OCC42CCN(C[C@@H]3COC4(CCN(c5ccc([C@H]6c7ccc(O)cc7CC[C@H]6c6ccccc6)cc5)CC4)C3)CC2)C(=O)N1` [Compound A25, (S)-3-(1′-(((R)-8-(4-((1S,2R)-6-hydroxy-2-phenyl-1,2,3,4-tetrahydronaphthalen-1-yl)phenyl)-1-oxa-8-azaspiro[4.5]decan-3-yl)methyl)-7-oxo-5,7-dihydro-2H,6H-spiro[furo[2,3-f]isoindole-3,4′-piperidin]-6-yl)piperidine-2,6-dione], the IC50 in assay [2] and in assay [4] (setting [7]) was less than 10 nM each time. For the same compound, the Dmax in assay [3] (setting [9]) and in assay [5] (setting [10]) was more than 75% throughout. Besides, the DC50 in assay [3] (16 hrs treatment) and in assay [5] (16 hrs treatment) was less than 1 nM in each case.
Take `O=C1CC[C@H](N2Cc3cc4c(cc3C2=O)OC[C@H]2CN(C[C@@H]3COC5(CCN(c6ccc([C@@H]7c8ccc(O)cc8CC[C@@H]7c7ccccc7)cc6)CC5)C3)CCN42)C(=O)N1` (single isomer, unassigned) [Compound A18]: the IC50 in assay [1] is 500 to 5000 nM; in assay [2] it was more than 100 nM. The greatest degradation seen (Dmax) in assay [3] (setting [6]) and in assay [5] (setting [8]) was 50 to 75% throughout. The DC50 in assay [3] (16 hrs treatment) and in assay [5] (16 hrs treatment) was less than 1 nM in each case.
`COc1cc(N2CCC3(CC2)CC(CN2CCC4(CC2)COc2c4ccc4c2CN([C@H]2CCC(=O)NC2=O)C4=O)C3)ccc1[C@@H]1c2ccc(O)cc2CC[C@@H]1c1ccccc1` [Compound A95, (S)-3-(1′-((7-(4-((1S,2S)-6-hydroxy-2-phenyl-1,2,3,4-tetra-hydronaphthalen-1-yl)-3-meth-oxyphenyl)-7-azaspiro[3.5]nonan-2-yl)methyl)-6-oxo-6,8-dihydro-2H,7H-spiro[furo[2,3-e]isoindole-3,4′-piperidin]-7-yl)piperidine-2,6-dione]: the figures for the IC50 in assay [1] and in assay [2] were less than 50 nM and less than 10 nM, respectively. The Dmax in assay [3] (setting [9]) and in assay [5] (setting [10]) was more than 75% throughout. For the same compound, the DC50 in assay [3] (16 hrs treatment) and in assay [5] (16 hrs treatment) was less than 1 nM in each case.
As for `O=C1CCC(NC(=O)c2ccc3c(n2)OC[C@H]2CN(CC4CCN(c5ccc([C@@H]6c7ccc(O)cc7CC[C@@H]6c6ccccc6)cc5)CC4)CCN32)C(=O)N1` (stereo partly drawn) [Compound A2, (4aR)-N-(2,6-dioxopiperidin-3-yl)-3-((1-(4-((1R,2S)-6-hydroxy-2-phenyl-1,2,3,4-tetrahydronaphthalen-1-yl)-phenyl)piperidin-4-yl)meth-yl)-1,2,3,4,4a,5-hexahydro-pyrazino[1,2-d]pyrido[2,3-b] [1,4]oxazine-8-carboxamide], the IC50 was 500 to 5000 nM in assay [1] and less than 10 nM in assay [2]. Moreover, the Dmax in assay [3] (setting [6]) and in assay [5] (setting [8]) was more than 75% each time. The DC50 in assay [3] (16 hrs treatment) and in assay [5] (16 hrs treatment) was less than 1 nM throughout.
As to `COc1cc(N2CCC(CN3CCN4c5ccc(C(=O)N[C@H]6CCC(=O)NC6=O)nc5OC[C@H]4C3)CC2)c(F)cc1[C@@H]1c2ccc(O)cc2CC[C@@H]1c1ccccc1` [Compound A94, (R)-N-((S)-2,6-dioxopiperidin-3-yl)-3-((1-(2-fluoro-4-((1S,2S)-6-hydroxy-2-phenyl-1,2,3,4-tetrahydronaphthalen-1-yl)-5-methoxyphenyl)piperidin-4-yl)methyl)-1,2,3,4,4a,5-hexahydropyrazino[1,2-d]pyrido[2,3-b][1,4]oxazine-8-carboxamide], the IC50 in assay [1] was more than 5000 nM; in assay [2] it was less than 10 nM. The Dmax in assay [3] (setting [6]) and in assay [5] (setting [8]) was more than 75% each time. Moreover, the DC50 in assay [3] (16 hrs treatment) and in assay [5] (16 hrs treatment) was less than 1 nM each time.

Usually IC50 stands for the midpoint of a concentration-inhibition curve. As a reminder, the Dmax is the greatest extent of degradation seen. By DC50 is commonly meant the concentration giving 50% degradation.
